Key:
barnyard grass [1] = test: Test Example 3: herbicidal effect by foliage application, Wagner pot (Table 18, symbol H); assay type: in vivo, barnyard grass (Echinochloa crus-galli)
How it was run: (§1)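 Plants were sown in alluvial soil held under 0.1–0.5 cm standing water and grown 14 days in a greenhouse at 25–30 °C. An emulsifiable formulation, water-diluted to the set dose, was then sprayed onto the foliage, and effects were scored three weeks later using previously defined criteria.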

lambsquarters [2] = test: Test Example 4: herbicidal effect by soil treatment (Table 19, symbol O); assay type: in vivo, lambsquarters (Chenopodium album)
How it was run: (§2)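 Soil-surface application: an emulsion agent diluted with water to the predetermined dose is sprayed uniformly over seeds lying under roughly 1.5 cm of sterilized diluvial soil. Boxes stay in a greenhouse at 25° C. to 30° C. Three weeks later, each species is graded on previously defined criteria.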

persian speedwell [3] = test: Test Example 5: herbicidal effect by foliage application, plastic box (Table 20, symbol R); assay type: in vivo, Persian speedwell (Veronica persica); conditions: foliage application, 3 weeks after application
How it was run: (§3)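 Sow seeds spot-wise in sterilized diluvial soil; cover with ~1.5 cm soil. Grow 14 days in greenhouse, 25° C. to 30° C. Spray foliage with emulsion diluted to predetermined amount. Rate effect after 3 weeks.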

blackgrass [4] = test: Test Example 4: herbicidal effect by soil treatment (Table 19, symbol J); assay type: in vivo, blackgrass (Alopecurus myosuroides)
How it was run: as §2

redroot pigweed = test: Test Example 4: herbicidal effect by soil treatment (Table 19, symbol N); assay type: in vivo, redroot pigweed (Amaranthus retroflexus)
How it was run: as §2

Italian ryegrass [5] = test: Test Example 5: herbicidal effect by foliage application, plastic box (Table 20, symbol K); assay type: in vivo, Italian ryegrass (Lolium multiflorum); conditions: foliage application, 3 weeks after application
How it was run: as §3

velvetleaf [6] = test: Test Example 4: herbicidal effect by soil treatment (Table 19, symbol M); assay type: in vivo, velvetleaf (Abutilon theophrasti)
How it was run: as §2

oval-leafed pondweed = test: Test Example 1: herbicidal activity, application before weed generation under submerged conditions (Table 16, symbol C); assay type: in vivo, oval-leafed pondweed (Monochoria vaginalis)
How it was run: (§4)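 Alluvial soil was flooded to 4 cm depth, weed seeds were sown mixed and 2.5-leaf rice seedlings were transplanted. On sowing day, the compound's emulsion, diluted in water to a set dose, was applied to the water surface. Plants grew at 25–30 °C and were scored 0–5 after three weeks.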

late watergrass = test: Test Example 1: herbicidal activity, application before weed generation under submerged conditions (Table 16, symbol A); assay type: in vivo, late watergrass (Echinochloa oryzicola)
How it was run: as §4

barnyard grass [7] = test: Test Example 4: herbicidal effect by soil treatment (Table 19, symbol H); assay type: in vivo, barnyard grass (Echinochloa crus-galli)
How it was run: as §2

southern crabgrass [8] = test: Test Example 5: herbicidal effect by foliage application, plastic box (Table 20, symbol F); assay type: in vivo, southern crabgrass (Digitaria ciliaris); conditions: foliage application, 3 weeks after application
How it was run: as §3

chickweed = test: Test Example 4: herbicidal effect by soil treatment (Table 19, symbol P); assay type: in vivo, common chickweed (Stellaria media)
How it was run: as §2

southern crabgrass [9] = test: Test Example 4: herbicidal effect by soil treatment (Table 19, symbol F); assay type: in vivo, southern crabgrass (Digitaria ciliaris)
How it was run: as §2

Chinese sprangletop = test: Test Example 3: herbicidal effect by foliage application, Wagner pot (Table 18, symbol D); assay type: in vivo, chinese sprangletop (Leptochloa chinensis)
How it was run: as §1

lambsquarters [10] = test: Test Example 5: herbicidal effect by foliage application, plastic box (Table 20, symbol O); assay type: in vivo, lambsquarters (Chenopodium album); conditions: foliage application, 3 weeks after application
How it was run: as §3

wild oat [11] = test: Test Example 4: herbicidal effect by soil treatment (Table 19, symbol I); assay type: in vivo, wild oat (Avena fatua)
How it was run: as §2

Japanese bulrush = test: Test Example 1: herbicidal activity, application before weed generation under submerged conditions (Table 16, symbol B); assay type: in vivo, Japanese bulrush (Schoenoplectus juncoides)
How it was run: as §4

windgrass [12] = test: Test Example 4: herbicidal effect by soil treatment (Table 19, symbol L); assay type: in vivo, windgrass (Apera spica-venti)
How it was run: as §2

velvetleaf [13] = test: Test Example 5: herbicidal effect by foliage application, plastic box (Table 20, symbol M); assay type: in vivo, velvetleaf (Abutilon theophrasti); conditions: foliage application, 3 weeks after application
How it was run: as §3

rice flat sedge = test: Test Example 3: herbicidal effect by foliage application, Wagner pot (Table 18, symbol E); assay type: in vivo, rice flat sedge (Cyperus iria)
How it was run: as §1

wild oat [14] = test: Test Example 5: herbicidal effect by foliage application, plastic box (Table 20, symbol I); assay type: in vivo, wild oat (Avena fatua); conditions: foliage application, 3 weeks after application
How it was run: as §3

green foxtail [15] = test: Test Example 4: herbicidal effect by soil treatment (Table 19, symbol G); assay type: in vivo, green foxtail (Setaria viridis)
How it was run: as §2

persian speedwell [16] = test: Test Example 4: herbicidal effect by soil treatment (Table 19, symbol R); assay type: in vivo, Persian speedwell (Veronica persica)
How it was run: as §2

Italian ryegrass [17] = test: Test Example 4: herbicidal effect by soil treatment (Table 19, symbol K); assay type: in vivo, Italian ryegrass (Lolium multiflorum)
How it was run: as §2

windgrass [18] = test: Test Example 5: herbicidal effect by foliage application, plastic box (Table 20, symbol L); assay type: in vivo, windgrass (Apera spica-venti); conditions: foliage application, 3 weeks after application
How it was run: as §3

blackgrass [19] = test: Test Example 5: herbicidal effect by foliage application, plastic box (Table 20, symbol J); assay type: in vivo, blackgrass (Alopecurus myosuroides); conditions: foliage application, 3 weeks after application
How it was run: as §3

green foxtail [20] = test: Test Example 5: herbicidal effect by foliage application, plastic box (Table 20, symbol G); assay type: in vivo, green foxtail (Setaria viridis); conditions: foliage application, 3 weeks after application
How it was run: as §3

barnyard grass [21] = test: Test Example 5: herbicidal effect by foliage application, plastic box (Table 20, symbol H); assay type: in vivo, barnyard grass (Echinochloa crus-galli); conditions: foliage application, 3 weeks after application
How it was run: as §3

CC=CCOc1ccc(-c2sc3ccccc3c2-c2c(O)c(C)nn(C)c2=O)cc1 [1-211]
herbicidal effect on H (barnyard grass), rating 0-5 (barnyard grass [1]; 80 g/ha): 4 (Herbicidal rate of 70% or more and less than 90%) | O: lambsquarters, herbicidal effect rating (lambsquarters [2]; AAH 80 g/ha): 0 (Herbicidal rate of 5% or less (almost no effect)) | effect on persian speedwell (R) (persian speedwell [3]; 80 g/ha): 5 (Herbicidal rate of 90% or more (almost completely withered)) | J: blackgrass, herbicidal effect rating (blackgrass [4]; AAH 80 g/ha): 0 (Herbicidal rate of 5% or less (almost no effect)) | N: redroot pigweed, herbicidal effect rating (redroot pigweed; AAH 80 g/ha): 3 (Herbicidal rate of 40% or more and less than 70%) | effect on Italian ryegrass (K) (Italian ryegrass [5]; 80 g/ha): 3 (Herbicidal rate of 40% or more and less than 70%) | M: velvetleaf, herbicidal effect rating (velvetleaf [6]; AAH 80 g/ha): 0 (Herbicidal rate of 5% or less (almost no effect)) | Herbicidal effect on C: oval-leafed pondweed (grade 0-5) (oval-leafed pondweed; 80 g/ha applied herbicide): 3 (Herbicidal rate of 40% or more and less than 70%) | Herbicidal effect on A: late watergrass (grade 0-5) (late watergrass; 80 g/ha applied herbicide): 5 (Herbicidal rate of 90% or more (almost completely withered)) | H: barnyard grass, herbicidal effect rating (barnyard grass [7]; AAH 80 g/ha): 0 (Herbicidal rate of 5% or less (almost no effect)) | effect on southern crabgrass (F) (southern crabgrass [8]; 80 g/ha): 3 (Herbicidal rate of 40% or more and less than 70%) | P: chickweed, herbicidal effect rating (chickweed; AAH 80 g/ha): 0 (Herbicidal rate of 5% or less (almost no effect)) | F: southern crabgrass, herbicidal effect rating (southern crabgrass [9]; AAH 80 g/ha): 0 (Herbicidal rate of 5% or less (almost no effect)) | herbicidal effect on D (Chinese sprangletop), rating 0-5 (Chinese sprangletop; 80 g/ha): 4 (Herbicidal rate of 70% or more and less than 90%) | effect on lambsquarters (O) (lambsquarters [10]; 80 g/ha): 5 (Herbicidal rate of 90% or more (almost completely withered)) | I: wild oat, herbicidal effect rating (wild oat [11]; AAH 80 g/ha): 0 (Herbicidal rate of 5% or less (almost no effect)) | Herbicidal effect on B: Japanese bulrush (grade 0-5) (Japanese bulrush; 80 g/ha applied herbicide): 3 (Herbicidal rate of 40% or more and less than 70%) | L: windgrass, herbicidal effect rating (windgrass [12]; AAH 80 g/ha): 0 (Herbicidal rate of 5% or less (almost no effect)) | effect on velvetleaf (M) (velvetleaf [13]; 80 g/ha): 4 (Herbicidal rate of 70% or more and less than 90%) | herbicidal effect on E (rice flat sedge), rating 0-5 (rice flat sedge; 80 g/ha): 4 (Herbicidal rate of 70% or more and less than 90%) | effect on wild oat (I) (wild oat [14]; 80 g/ha): 0 (Herbicidal rate of 5% or less (almost no effect)) | G: green foxtail, herbicidal effect rating (green foxtail [15]; AAH 80 g/ha): 0 (Herbicidal rate of 5% or less (almost no effect)) | R: persian speedwell, herbicidal effect rating (persian speedwell [16]; AAH 80 g/ha): 0 (Herbicidal rate of 5% or less (almost no effect)) | K: Italian ryegrass, herbicidal effect rating (Italian ryegrass [17]; AAH 80 g/ha): 0 (Herbicidal rate of 5% or less (almost no effect)) | effect on windgrass (L) (windgrass [18]; 80 g/ha): 0 (Herbicidal rate of 5% or less (almost no effect)) | effect on blackgrass (J) (blackgrass [19]; 80 g/ha): 2 (Herbicidal rate of 20% or more and less than 40%) | effect on green foxtail (G) (green foxtail [20]; 80 g/ha): 5 (Herbicidal rate of 90% or more (almost completely withered)) | effect on barnyard grass (H) (barnyard grass [21]; 80 g/ha): 3 (Herbicidal rate of 40% or more and less than 70%)

Cc1nn(C)c(=O)c(-c2c(-c3ccc(C(C)C)cc3)sc3ccc(F)cc23)c1O [2-014]
herbicidal effect on H (barnyard grass), rating 0-5 (barnyard grass [1]; 320 g/ha): 5 (Herbicidal rate of 90% or more (almost completely withered)) | herbicidal effect rating, O: lambsquarters (lambsquarters [2]; 320 g/ha): 5 (Herbicidal rate of 90% or more (almost completely withered)) | effect on persian speedwell (R) (persian speedwell [3]; 320 g/ha): 5 (Herbicidal rate of 90% or more (almost completely withered)) | herbicidal effect rating, J: blackgrass (blackgrass [4]; 320 g/ha): 0 (Herbicidal rate of 5% or less (almost no effect)) | herbicidal effect rating, N: redroot pigweed (redroot pigweed; 320 g/ha): 5 (Herbicidal rate of 90% or more (almost completely withered)) | effect on Italian ryegrass (K) (Italian ryegrass [5]; 320 g/ha): 5 (Herbicidal rate of 90% or more (almost completely withered)) | herbicidal effect rating, M: velvetleaf (velvetleaf [6]; 320 g/ha): 3 (Herbicidal rate of 40% or more and less than 70%) | Herbicidal effect on C: oval-leafed pondweed (grade 0-5) (oval-leafed pondweed; 320 g/ha applied herbicide): 0 (Herbicidal rate of 5% or less (almost no effect)) | Herbicidal effect on A: late watergrass (grade 0-5) (late watergrass; 320 g/ha applied herbicide): 3 (Herbicidal rate of 40% or more and less than 70%) | herbicidal effect rating, H: barnyard grass (barnyard grass [7]; 320 g/ha): 4 (Herbicidal rate of 70% or more and less than 90%) | effect on southern crabgrass (F) (southern crabgrass [8]; 320 g/ha): 5 (Herbicidal rate of 90% or more (almost completely withered)) | herbicidal effect rating, P: chickweed (chickweed; 320 g/ha): 4 (Herbicidal rate of 70% or more and less than 90%) | herbicidal effect rating, F: southern crabgrass (southern crabgrass [9]; 320 g/ha): 0 (Herbicidal rate of 5% or less (almost no effect)) | herbicidal effect on D (Chinese sprangletop), rating 0-5 (Chinese sprangletop; 320 g/ha): 5 (Herbicidal rate of 90% or more (almost completely withered)) | effect on lambsquarters (O) (lambsquarters [10]; 320 g/ha): 5 (Herbicidal rate of 90% or more (almost completely withered)) | herbicidal effect rating, I: wild oat (wild oat [11]; 320 g/ha): 0 (Herbicidal rate of 5% or less (almost no effect)) | Herbicidal effect on B: Japanese bulrush (grade 0-5) (Japanese bulrush; 320 g/ha applied herbicide): 0 (Herbicidal rate of 5% or less (almost no effect)) | herbicidal effect rating, L: windgrass (windgrass [12]; 320 g/ha): 3 (Herbicidal rate of 40% or more and less than 70%) | effect on velvetleaf (M) (velvetleaf [13]; 320 g/ha): 5 (Herbicidal rate of 90% or more (almost completely withered)) | herbicidal effect on E (rice flat sedge), rating 0-5 (rice flat sedge; 320 g/ha): 5 (Herbicidal rate of 90% or more (almost completely withered)) | effect on wild oat (I) (wild oat [14]; 320 g/ha): 2 (Herbicidal rate of 20% or more and less than 40%) | herbicidal effect rating, G: green foxtail (green foxtail [15]; 320 g/ha): 2 (Herbicidal rate of 20% or more and less than 40%) | herbicidal effect rating, R: persian speedwell (persian speedwell [16]; 320 g/ha): 5 (Herbicidal rate of 90% or more (almost completely withered)) | herbicidal effect rating, K: Italian ryegrass (Italian ryegrass [17]; 320 g/ha): 4 (Herbicidal rate of 70% or more and less than 90%) | effect on windgrass (L) (windgrass [18]; 320 g/ha): 5 (Herbicidal rate of 90% or more (almost completely withered)) | effect on blackgrass (J) (blackgrass [19]; 320 g/ha): 4 (Herbicidal rate of 70% or more and less than 90%) | effect on green foxtail (G) (green foxtail [20]; 320 g/ha): 5 (Herbicidal rate of 90% or more (almost completely withered)) | effect on barnyard grass (H) (barnyard grass [21]; 320 g/ha): 5 (Herbicidal rate of 90% or more (almost completely withered))

From US20230085307A1, “PYRIDAZINONE COMPOUND AND HERBICIDE” (NISSAN CHEMICAL CORPORATION, priority 2019, published 2023)
